Target: T1, HEK cells stably transfected with tetracycline inducible hNR1 and hNR2A (Homo sapiens, UniProt Q05586+Q12879)
T1 construct: expressed in transfected cells; host or cells: HEK cells, stably transfected, tetracycline/doxycycline inducible
Experiment: Assay 1: Cell-Based Assay, cytosolic calcium response to positive allosteric modulators (with 30 μM glycine and 300 nM L-glutamate, EC30)
Conditions: for EC50: cytosolic calcium response, with 30 μM glycine and 300 nM L-glutamate (EC30), — = no plateau was reached; for Max %: responses scaled relative to 100 μM L-glutamate maximal response (100%) and 0 μM L-glutamate (0%)
Summary of the method: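 Cells induced 24 h with 7.5 μg mL^−1 doxycycline plus 500 μM (+)-ketamine, loaded 60 min at 37 °C with calcium dye in Mg-free HBSS (1.8 mM Ca, probenecid, 10 μM (+)-ketamine, pH 7.15). Peak RFU over 5 min after compound addition, scaled to 100 μM L-glutamate (100%) and 0 μM (0%); four-parameter Hill fit for EC50, max % if no plateau.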

T1 sequence (Q12879 23-1464, other chains not shown): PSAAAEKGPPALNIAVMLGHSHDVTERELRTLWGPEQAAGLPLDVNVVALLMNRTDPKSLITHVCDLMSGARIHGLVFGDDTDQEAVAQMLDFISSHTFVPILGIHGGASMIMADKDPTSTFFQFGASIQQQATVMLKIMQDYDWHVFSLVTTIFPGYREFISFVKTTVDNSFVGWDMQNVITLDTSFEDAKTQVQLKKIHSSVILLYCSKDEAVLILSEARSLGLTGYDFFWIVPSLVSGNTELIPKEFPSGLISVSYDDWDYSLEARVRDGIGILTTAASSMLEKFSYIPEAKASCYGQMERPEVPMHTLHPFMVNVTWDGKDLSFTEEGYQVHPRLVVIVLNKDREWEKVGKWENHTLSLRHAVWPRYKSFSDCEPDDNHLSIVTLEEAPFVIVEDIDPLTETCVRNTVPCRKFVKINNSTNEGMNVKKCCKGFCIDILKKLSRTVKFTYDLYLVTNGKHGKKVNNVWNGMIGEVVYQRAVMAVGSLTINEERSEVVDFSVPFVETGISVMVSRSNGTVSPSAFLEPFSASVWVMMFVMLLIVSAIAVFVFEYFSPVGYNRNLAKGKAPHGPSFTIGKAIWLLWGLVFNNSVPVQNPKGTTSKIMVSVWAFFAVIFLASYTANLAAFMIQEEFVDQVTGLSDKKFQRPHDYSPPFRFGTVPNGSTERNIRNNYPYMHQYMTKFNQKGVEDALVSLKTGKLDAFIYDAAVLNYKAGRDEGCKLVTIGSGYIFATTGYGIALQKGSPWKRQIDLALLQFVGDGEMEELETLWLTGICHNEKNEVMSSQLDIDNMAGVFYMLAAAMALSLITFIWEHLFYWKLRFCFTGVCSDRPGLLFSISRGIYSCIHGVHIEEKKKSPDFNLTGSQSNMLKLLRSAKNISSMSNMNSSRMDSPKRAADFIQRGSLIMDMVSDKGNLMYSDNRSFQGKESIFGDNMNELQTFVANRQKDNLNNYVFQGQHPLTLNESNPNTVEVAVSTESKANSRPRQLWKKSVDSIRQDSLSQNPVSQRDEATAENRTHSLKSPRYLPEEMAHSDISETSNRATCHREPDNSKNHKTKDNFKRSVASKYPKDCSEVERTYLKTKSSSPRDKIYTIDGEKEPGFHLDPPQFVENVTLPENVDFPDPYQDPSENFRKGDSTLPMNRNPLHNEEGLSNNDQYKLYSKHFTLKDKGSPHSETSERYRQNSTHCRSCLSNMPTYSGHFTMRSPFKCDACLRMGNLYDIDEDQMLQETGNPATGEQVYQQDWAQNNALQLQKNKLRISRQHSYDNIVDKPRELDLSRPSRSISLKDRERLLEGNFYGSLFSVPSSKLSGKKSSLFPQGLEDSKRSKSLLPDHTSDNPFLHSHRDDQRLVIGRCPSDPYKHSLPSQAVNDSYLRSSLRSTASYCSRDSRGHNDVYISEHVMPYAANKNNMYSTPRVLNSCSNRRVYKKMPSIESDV

EC50 (Table 3) | EC50 (Table 2) | Max % (Table 2) | SMILES
1.12 µM |  |  | CCNC(=O)c1c(C(F)(F)F)sc2nc(CN(CC)c3ccc(F)cn3)cc(=O)n12 [compound 205, N-ethyl-7-[[ethyl-(5-fluoro-2-pyridyl)amino]methyl]-5-oxo-2-(trifluoromethyl)thiazolo[3,2-a]pyrimidine-3-carboxamide]
 | 26.5 µM |  | CC1(C)CCc2sc3nc(Cn4nc(C(F)(F)F)cc4C4CC4)cc(=O)n3c21 [Example 27.7, 10-{[5-cyclopropyl-3-(trifluoromethyl)-1H-pyrazol-1-yl]methyl}-3,3-dimethyl-7-thia-1,9-diazatricyclo[6.4.0.0^{2,6}]dodeca-2(6),8,10-trien-12-one]
 | 51.5 µM | 129% | CCN(Cc1cc(=O)n2c(Br)c(C3CC3)sc2n1)c1ccc(F)cc1 [Example 5.54, 3-bromo-2-cyclopropyl-7-[(N-ethyl-4-fluoro-anilino)methyl]thiazolo[3,2-a]pyrimidin-5-one]
2.85 µM |  |  | CCNC(=O)c1c(C)sc2nc(CN(CC)c3ccc(Cl)cn3)cc(=O)n12 [compound 152, 7-[[(5-chloro-2-pyridyl)-ethyl-amino]methyl]-N-ethyl-2-methyl-5-oxo-thiazolo[3,2-a]pyrimidine-3-carboxamide]
5.95 µM |  |  | CNC(=O)c1c(C)sc2nc(Cc3ccc4c(c3)CC4)cc(=O)n12 [compound 32, 7-(4-bicyclo[4.2.0]octa-1,3,5-trienylmethyl)-N,2-dimethyl-5-oxo-thiazolo[3,2-a]pyrimidine-3-carboxamide]
 |  | 49.1% | CCNC(=O)c1c(C)sc2nc(Cc3cccc(F)c3F)cc(=O)n12 [Example 21.45, 7-(2,3-difluorobenzyl)-N-ethyl-2-methyl-5-oxo-5H-thiazolo[3,2-a]pyrimidine-3-carboxamide]
0.18 µM |  |  | CCc1sc2nc(Cn3nc(Cl)cc3C(F)(F)F)cc(=O)n2c1C1CC1C#N (centres unmarked) [compound 214, 2-[7-[[3-chloro-5-(trifluoromethyl)pyrazol-1-yl]methyl]-2-ethyl-5-oxo-thiazolo[3,2-a]pyrimidin-3-yl]cyclopropanecarbonitrile]
 | 0.584 µM | 141% | CCN(Cc1cc(=O)n2c(-c3cccnc3)c(C)sc2n1)c1ccc(F)cc1 [Example 5.21, 7-[(N-ethyl-4-fluoro-anilino)methyl]-2-methyl-3-(3-pyridyl)thiazolo[3,2-a]pyrimidin-5-one]
1.22 µM |  |  | O=c1cc(Cn2nc(Cl)cc2C(F)(F)F)nc2sc3c(n12)CCC3 [compound 90]
 |  | 77.8% | CCNC(=O)c1c(C)sc2nc(Cc3cccc4ccccc34)cc(=O)n12 [Example 21.35, N-ethyl-2-methyl-7-(naphthalen-1-ylmethyl)-5-oxo-5H-thiazolo[3,2-a]pyrimidine-3-carboxamide]
 |  | 64.2% | Cc1sc2nc(C(C)n3nc(C(F)(F)F)cc3C3CC3)cc(=O)n2c1C1(C)CC1CO (centres unmarked) [Example 19.2, 7-(1-(5-cyclopropyl-3-(trifluoromethyl)-1H-pyrazol-1-yl)ethyl)-3-(2-(hydroxymethyl)-1-methylcyclopropyl)-2-methyl-5H-thiazolo[3,2-a]pyrimidin-5-one]
1.57 µM |  |  | CNC(=O)Cc1c(C)sc2nc(Cn3nc(C(F)(F)F)cc3Cl)cc(=O)n12 [compound 98, 2-[7-[[5-chloro-3-(trifluoromethyl)pyrazol-1-yl]methyl]-2-methyl-5-oxo-thiazolo[3,2-a]pyrimidin-3-yl]-N-methyl-acetamide]
0.825 µM |  |  | CCC(C)NC(=O)c1c(C)sc2nc(Cc3cccc(C(F)(F)F)c3F)cc(=O)n12 (centres unmarked) [compound 112, 7-[[2-fluoro-3-(trifluoromethyl)phenyl]methyl]-2-methyl-5-oxo-N-sec-butyl-thiazolo[3,2-a]pyrimidine-3-carboxamide]
0.243 µM |  |  | Cc1sc2nc(Cn3nc(Cl)cc3C(F)(F)F)cc(=O)n2c1Cl [compound 193, 3-chloro-7-[[3-chloro-5-(trifluoromethyl)pyrazol-1-yl]methyl]-2-methyl-thiazolo[3,2-a]pyrimidin-5-one]
 | 1.3 µM | 156% | CCN(Cc1cc(=O)n2c(CS(C)(=O)=O)c(C)sc2n1)c1ccc(F)cc1 [Example 10.15, 7-[(N-ethyl-4-fluoro-anilino)methyl]-2-methyl-3-(methylsulfonylmethyl)thiazolo[3,2-a]pyrimidin-5-one]
20.8 µM |  |  | CCNC(=O)c1c(C)sc2nc(CN(CC)c3ccccn3)cc(=O)n12 [compound 148, N-ethyl-7-[[ethyl(2-pyridyl)amino]methyl]-2-methyl-5-oxo-thiazolo[3,2-a]pyrimidine-3-carboxamide]

EC50 (Table 3) | EC50 (Table 2) | Max % (Table 2) | SMILES
 | 3.7 µM | 151% | CCN(Cc1cc(=O)n2c(C#N)c(C)sc2n1)c1cccc(C#N)c1 [Example 7.6, 7-(((3-cyanophenyl)(ethyl)amino)methyl)-2-methyl-5-oxo-5H-thiazolo[3,2-a]pyrimidine-3-carbonitrile]
0.436 µM |  |  | CCNC(=O)c1c(C)sc2nc(Cn3nc(C(F)(F)F)cc3C3CC3)cc(=O)n12 [compound 76, 7-[[5-cyclopropyl-3-(trifluoromethyl)pyrazol-1-yl]methyl]-N-ethyl-2-methyl-5-oxo-thiazolo[3,2-a]pyrimidine-3-carboxamide]
11.4 µM |  |  | CC(=O)c1csc2nc(Cn3nc(C(F)(F)F)cc3Cl)cc(=O)n12 [compound 242, 3-acetyl-7-[[5-chloro-3-(trifluoromethyl)pyrazol-1-yl]methyl]thiazolo[3,2-a]pyrimidin-5-one]
0.31 µM |  |  | CCc1sc2nc(Cn3nc(C(F)(F)F)cc3Cl)cc(=O)n2c1C(C)=O [compound 211, 3-acetyl-7-[[5-chloro-3-(trifluoromethyl)pyrazol-1-yl]methyl]-2-ethyl-thiazolo[3,2-a]pyrimidin-5-one]
10.6 µM |  |  | Cc1sc2nc(Cc3nc(C(F)(F)F)cn3C)cc(=O)n2c1C1CC1C#N (centres unmarked) [compound 278, 2-[2-methyl-7-[[1-methyl-4-(trifluoromethyl)imidazol-2-yl]methyl]-5-oxo-thiazolo[3,2-a]pyrimidin-3-yl]cyclopropanecarbonitrile]
 | 0.913 µM | 130% | CCN(Cc1cc(=O)n2c(CCCOC)c(C)sc2n1)c1ccc(F)cc1 [Example 13.2, 7-((Ethyl(4-fluorophenyl)amino)methyl)-3-(3-methoxypropyl)-2-methyl-5H-thiazolo[3,2-a]pyrimidin-5-one]
 | 5.2 µM | 51.3% | CCC(=O)c1c(C)sc2nc(COc3ccc(F)cc3)cc(=O)n12 [Example 2.1, 7-((4-fluorophenoxy)methyl)-2-methyl-3-propionyl-5H-thiazolo[3,2-a]pyrimidin-5-one]
 | 2.8 µM | 109% | Cc1sc2nc(COc3ccc(F)cc3)cc(=O)n2c1C1CC1C (centres unmarked) [Example 4.25, 7-(4-Fluorophenoxymethyl)-2-methyl-3-(2-methylcyclopropyl)-5H-[1,3]thiazolo[3,2-a]pyrimidin-5-one]
 |  | 49% | CNC(=O)c1c(C)sc2nc(Cc3cc(F)ccc3F)cc(=O)n12 [Example 21.53, 7-[(2,5-difluorophenyl)methyl]-N,2-dimethyl-5-oxo-thiazolo[3,2-a]pyrimidine-3-carboxamide]
0.012 µM |  |  | Cc1sc2nc(Cn3nc(C(F)(F)F)cc3Br)cc(=O)n2c1[C@@H]1C[C@@H]1C#N (single isomer, unassigned) [compound 274]
 | 0.821 µM | 145% | Cc1sc2nc(CN(CCF)c3ccc(F)cc3)cc(=O)n2c1[C@@H]1C[C@H]1CO (single isomer, unassigned) [Example 5.43, 7-[[4-fluoro-N-(2-fluoroethyl)anilino]methyl]-3-[trans-2-(hydroxymethyl)cyclopropyl]-2-methyl-thiazolo[3,2-a]pyrimidin-5-one]
 | 14.8 µM | 133% | Cc1sc2nc(Cc3cccc(C#N)n3)cc(=O)n2c1C1CC1C#N (centres unmarked) [Example 23.3, 6-((3-(2-cyanocyclopropyl)-2-methyl-5-oxo-5H-thiazolo[3,2-a]pyrimidin-7-yl)methyl)picolinonitrile]
0.533 µM |  |  | Cc1sc2nc(Cc3cccc(C#N)c3F)cc(=O)n2c1C1CC1C(F)(F)F (centres unmarked) [compound 38, 2-fluoro-3-[[2-methyl-5-oxo-3-[2-(trifluoromethyl)cyclopropyl]thiazolo[3,2-a]pyrimidin-7-yl]methyl]benzonitrile]
1.14 µM |  |  | CNC(=O)Cc1c(C)sc2nc(Cc3cccc(C4CC4)c3F)cc(=O)n12 [compound 11, 2-[7-[(3-cyclopropyl-2-fluoro-phenyl)methyl]-2-methyl-5-oxo-thiazolo[3,2-a]pyrimidin-3-yl]-N-methyl-acetamide]
 | 0.489 µM | 144% | Cc1sc2nc(Cn3nc(Cl)cc3C)cc(=O)n2c1[C@@H]1C[C@H]1CO (relative stereo) [Example 15.3, 7-((3-chloro-5-methyl-1H-pyrazol-1-yl)methyl)-3-(trans-2-(hydroxymethyl)cyclopropyl)-2-methyl-5H-thiazolo[3,2-a]pyrimidin-5-one]

SMILES | EC50 (Table 3) | EC50 (Table 2) | Max % (Table 2)
Cc1sc2nc(COc3ccc(F)cc3)cc(=O)n2c1C1CC1CO (single isomer, unassigned) [Example 4.2, 7-(4-Fluorophenoxymethyl)-3-[trans-2-(hydroxymethyl)cyclopropyl]-2-methyl-5H-[1,3]thiazolo[3,2-a]pyrimidin-5-one] |  | 1.3 µM | 137%
CCNC(=O)c1csc2nc(Cc3cccc(C#N)c3F)cc(=O)n12 [Example 21.33, 7-(3-cyano-2-fluorobenzyl)-N-ethyl-5-oxo-5H-thiazolo[3,2-a]pyrimidine-3-carboxamide] |  |  | 82.5%

— patent publication US9988400B2 (Genentech, Inc., priority 2013, dated 2018)
